Measurements published in US20080221100A1, “SOLUBLE EPOXIDE HYDROLASE INHIBITORS” (Arete Therapeutics, Inc., priority 2006, published 2008).

Test system: not given
Experiment: not given
Conditions: not given

| melting point [°C] | Compound |
| --- | --- |
| 263 to 265 | CC(C)(C)C(=O)N1CCC(NC(=O)Nc2ccc(C(F)(F)F)cc2)CC1 [Compound 41, 1-(1-Pivaloylpiperidin-4-yl)-3-(4-(trifluoromethyl)phenyl)urea] |
| 158 to 160 | O=C(Nc1ccc(C(F)(F)F)cc1)NC1CCN(C(=O)CCO)CC1 [Compound 49, 1-(1-(3-hydroxypropanoyl)piperidin-4-yl)-3-(4-(trifluoromethyl)phenyl)urea] |
| 197 to 199 | CC(C)(Oc1ccc(C(=O)N2CCC(NC(=O)Nc3ccc(C(F)(F)F)cc3)CC2)cc1)C(=O)O [Compound 40, 2-Methyl-2-(4-(4-(3-(4-(trifluoromethyl)phenyl)ureido)piperidine-1-carbonyl)phenoxy)propanoic acid] |
| 213 to 216 | CC(=O)N1CCC(NC(=O)Nc2ccc(Br)cc2)CC1 [Compound 43, 1-(1-acetylpiperidin-4-yl)-3-(4-bromophenyl)urea] |
| 214 to 215 | COCC(=O)N1CCC(NC(=O)Nc2ccc(C(F)(F)F)cc2)CC1 [Compound 51, 1-(1-(2-methoxyacetyl)piperidin-4-yl)-3-(4-(trifluoromethyl)phenyl)urea] |
| 184 to 186 | CC(C)(O)CCC(=O)N1CCC(NC(=O)Nc2ccc(C(F)(F)F)cc2)CC1 [Compound 47, 1-(1-(4-hydroxy-4-methylpentanoyl)piperidin-4-yl)-3-(4-(trifluoromethyl)phenyl)urea] |
| 240 to 242 | CC(C)S(=O)(=O)N1CCC(NC(=O)Nc2ccc(Br)cc2)CC1 [Compound 44, 1-(4-bromophenyl)-3-(1-(isopropylsulfonyl)piperidin-4-yl)urea] |
| 193 to 204 | CC(C)C(=O)N1CCC(NC(=O)Nc2ccc(Br)cc2)CC1 [Compound 46, 1-(4-bromophenyl)-3-(1-isobutyrylpiperidin-4-yl)urea] |

Test system: soluble epoxide hydrolase (sEH)
Experiment: Fluorescent assay for mouse and human soluble epoxide hydrolase (CMNPC substrate)
Format: biochemical, mouse or human, not specified
Conditions: Conc 50 nM
Excerpt: Fluorescent Assay for Mouse and Human Soluble Epoxide Hydrolase Recombinant mouse sEH (MsEH) and human sEH (HsEH) were produced in a baculovirus expression system as previously reported. Grant et al., J. Biol. Chem., 268:17628-17633 (1993); Beetham et al., Arch. Biochem. Biophys., 305:197-201 (1993). The expressed proteins were purified from cell lysate by affinity chromatography. Wixtrom et al., Anal. Biochem., 169:71-80 (1988). Protein concentration was quantified using the Pierce BCA assay using bovine serum albumin as the calibrating standard. […] They contained no detectable esterase or glutathione transferase activity which can interfere with the assay. The assay was also evaluated with similar results in crude cell lysates or homogenate of tissues. The IC50s for each inhibitor were determined according to the following procedure: Substrate: [drawing 155] […] Jones P. D. et al.; Analytical Biochemistry 2005; 343: pp. 66-75) Solutions: Bis/Tris HCl 25 mM pH 7.0 containing 0.1 mg/mL of BSA (buffer […] at 0.25 mM in DMSO. Mother solution of enzyme in buffer A (Mouse sEH at 6 μg/mL and Human sEH at 5 μg/mL). Inhibitor dissolved in DMSO at the appropriate concentration. Protocol: In a black 96 well plate, fill all the wells with 150 μL of buffer A. Add 2 μL of DMSO in well A2 and A3, and then add 2 μL of inhibitor solution in A1 and A4 through A12. Add 150 μL of buffer A in row A, then mix several time and transfer 150 μL to row B. Repeat this operation up to row H. The 150 μL removed from row H is discarded. Add 20 μL of buffer A in column 1 and 2, then add 20 μL of enzyme solution to column 3 to 12. Incubate the plate for 5 minutes in the plate reader at 30° C. During incubation prepare the working solution of substrate by mixing 3.68 mL of buffer A (4×0.920 mL) with 266 μL (2×133 μL) of substrate solution). At t=0, add 30 μL of working substrate solution with multi-channel pipette labeled “Briggs 303” and start the reading ([S]final: 5 μM). Read with ex: 330 nm (20 nm) and em: 465 nm (20 nm) every 30 second for 10 minutes. The velocities are used to analyze and calculate the IC50s.

| % Inhibition [%] | Compound |
| --- | --- |
| 97 | CC(C)(C)C(=O)N1CCC(NC(=O)Nc2ccc(C(F)(F)F)cc2)CC1 [Compound 41, 1-(1-Pivaloylpiperidin-4-yl)-3-(4-(trifluoromethyl)phenyl)urea] |
| 68 | CC(C)(Oc1ccc(C(=O)N2CCC(NC(=O)Nc3ccc(C(F)(F)F)cc3)CC2)cc1)C(=O)O [Compound 40, 2-Methyl-2-(4-(4-(3-(4-(trifluoromethyl)phenyl)ureido)piperidine-1-carbonyl)phenoxy)propanoic acid] |
| 68 | CC(=O)N1CCC(NC(=O)Nc2cccc(C(F)(F)F)c2)CC1 [Compound 25, 1-(1-Acetyl-piperidin-4-yl)-3-(3-trifluoromethyl-phenyl)-urea] |
| 89 | Cn1cnc(C(=O)N2CCC(NC(=O)Nc3ccc(C(F)(F)F)cc3)CC2)c1 [Compound 35, 1-[1-(1-Methyl-1H-imidazole-4-carbonyl)-piperidin-4-yl]-3-(4-trifluoromethyl-phenyl)-urea] |
| 72 | O=C(Nc1ccc(C(F)(F)F)cc1)NC1CCN(C(=O)Cc2c[nH]cn2)CC1 [Compound 33, 1-[1-(2-1H-Imidazol-4-yl-acetyl)-piperidin-4-yl]-3-(4-trifluoromethyl-phenyl)-urea] |
| 96 | O=C(Nc1ccc(C(F)(F)F)cc1)NC1CCN(S(=O)(=O)c2cccc(C(F)(F)F)c2)CC1 [Compound 20, 1-[1-(3-Trifluoromethyl-benzenesulfonyl)-piperidin-4-yl]-3-(4-trifluoromethyl-phenyl)-urea] |
| 93 | CC(C)S(=O)(=O)N1CCC(NC(=O)Nc2ccc(C(F)(F)F)cc2)CC1 [Compound 42, 1-(1-(Isopropylsulfonyl)piperidin-4-yl)-3-(4-(trifluoromethyl)phenyl)urea] |
| 95 | O=C(Nc1cccc(C(F)(F)F)c1)NC1CCN(S(=O)(=O)c2ccc(C(F)(F)F)cc2)CC1 [Compound 29, 1-[1-(4-Trifluoromethyl-benzenesulfonyl)-piperidin-4-yl]-3-(3-trifluoromethyl-phenyl)-urea] |
| 86 | CS(=O)(=O)N1CCC(NC(=O)Nc2cccc(C(F)(F)F)c2)CC1 [Compound 24, 1-(1-Methanesulfonyl-piperidin-4-yl)-3-(3-trifluoromethyl-phenyl)-urea] |

More lines, now with the values behind:

| Compound | % Inhibition [%] |
| --- | --- |
| O=C(Nc1ccc(F)cc1)NC1CCN(S(=O)(=O)c2ccc(C(F)(F)F)cc2)CC1 [Compound 14, 1-(4-Fluoro-phenyl)-3-[1-(4-trifluoromethyl-benzenesulfonyl)-piperidin-4-yl]-urea] | 89 |
| O=C(Nc1ccc(C(F)(F)F)cc1)NC1CCN(C(=O)c2ccc(C(=O)O)cc2)CC1 [Compound 11, 4-{4-[3-(4-Trifluoromethyl-phenyl)-ureido]-piperidine-1-carbonyl}-benzoic acid] | 98 |
| O=C(Nc1ccc(F)cc1)NC1CCN(S(=O)(=O)c2ccccc2)CC1 [Compound 13, 1-(1-Benzenesulfonyl-piperidin-4-yl)-3-(4-fluoro-phenyl)-urea] | 79 |
| O=C(Nc1ccc(C(F)(F)F)cc1)NC1CCN(S(=O)(=O)c2ccc(C(=O)O)cc2)CC1 [Compound 16, 4-{4-[3-(4-Trifluoromethyl-phenyl)-ureido]-piperidine-1-sulfonyl}-benzoic acid] | 80 |
| O=C(Nc1cccc(C(F)(F)F)c1)NC1CCN(S(=O)(=O)c2ccccc2)CC1 [Compound 26, 1-(1-Benzenesulfonyl-piperidin-4-yl)-3-(3-trifluoromethyl-phenyl)-urea] | 90 |
| O=C(Nc1ccc(F)cc1)NC1CCN(S(=O)(=O)c2cccc(C(F)(F)F)c2)CC1 [Compound 12, 1-(4-Fluoro-phenyl)-3-[1-(3-trifluoromethyl-benzenesulfonyl)-piperidin-4-yl]-urea] | 90 |
| O=C(Nc1ccc(C(F)(F)F)cc1)NC1CCN(C(=O)c2ccccn2)CC1 [Compound 9, 1-[1-(Pyridine-2-carbonyl)-piperidin-4-yl]-3-(4-trifluoromethyl-phenyl)-urea] | 94 |
| O=C(Nc1ccc(F)cc1)NC1CCN(C(=O)c2ccc(C(=O)O)cc2)CC1 [Compound 10, 4-{4-[3-(4-Fluoro-phenyl)-ureido]-piperidine-1-carbonyl}-benzoic acid] | 75 |
| O=C(Nc1ccc(C(F)(F)F)cc1)NC1CCN(S(=O)(=O)c2ccc(Cl)cc2)CC1 [Compound 18, 1-[1-(4-Chloro-benzenesulfonyl)-piperidin-4-yl]-3-(4-trifluoromethyl-phenyl)-urea] | 90 |
| O=C(Nc1ccc(C(F)(F)F)cc1)NC1CCN(C(=O)c2cccnc2)CC1 [Compound 8, 1-[1-(Pyridine-3-carbonyl)-piperidin-4-yl]-3-(4-trifluoromethyl-phenyl)-urea] | 94 |
| CC(C)CC(=O)N1CCC(NC(=O)Nc2ccc(C(F)(F)F)cc2)CC1 [Compound 6, 1-[1-(3-Methyl-butyryl)-piperidin-4-yl]-3-(4-trifluoromethyl-phenyl)-urea] | 94 |
| O=C(Nc1ccc(Cl)cc1)NC1CCN(S(=O)(=O)c2ccc(C(=O)O)cc2)CC1 [Compound 15, 4-{4-[3-(4-Chloro-phenyl)-ureido]-piperidine-1-sulfonyl}-benzoic acid] | 75 |
| O=C(Nc1ccc(C(F)(F)F)cc1)NC1CCN(S(=O)(=O)c2ccccc2)CC1 [Compound 17, 1-(1-Benzenesulfonyl-piperidin-4-yl)-3-(4-trifluoromethyl-phenyl)-urea] | 90 |

Same assay, conditions: Conc 200 nM

| % Inhibition [%] | Compound |
| --- | --- |
| 90 | O=C(Nc1ccc(C(F)(F)F)cc1)NC1CCN(C(=O)CCO)CC1 [Compound 49, 1-(1-(3-hydroxypropanoyl)piperidin-4-yl)-3-(4-(trifluoromethyl)phenyl)urea] |
| 93 | CC(C)(O)CCC(=O)N1CCC(NC(=O)Nc2ccc(C(F)(F)F)cc2)CC1 [Compound 47, 1-(1-(4-hydroxy-4-methylpentanoyl)piperidin-4-yl)-3-(4-(trifluoromethyl)phenyl)urea] |
| 100 | CC(C)(C)CC(=O)N1CCC(NC(=O)Nc2ccc(C(F)(F)F)cc2)CC1 [Compound 48, 1-(1-(3,3-dimethylbutanoyl)piperidin-4-yl)-3-(4-(trifluoromethyl)phenyl)urea] |
| 97 | CC(C)C(=O)N1CCC(NC(=O)Nc2ccc(C(F)(F)F)cc2)CC1 [Compound 45, 1-(1-isobutyrylpiperidin-4-yl)-3-(4-(trifluoromethyl)phenyl)urea] |

Same assay, conditions: Conc 500 nM

| % Inhibition [%] | Compound |
| --- | --- |
| 70 | O=C(Nc1ccc(F)c(F)c1)NC1CCN(C(=O)CCCN2CCOCC2)CC1 [Compound 2, 1-(3,4-Difluoro-phenyl)-3-[1-(4-morpholin-4-yl-butyryl)-piperidin-4-yl]-urea] |
| 89 | O=C(Nc1ccc(F)cc1)NC1CCN(C(=O)c2cccnc2)CC1 [Compound 7, 1-(4-Fluoro-phenyl)-3-[1-(pyridine-3-carbonyl)-piperidin-4-yl]-urea] |
| 80 | O=C(Nc1ccc(Cl)cc1)NC1CCN(C(=O)Cc2c[nH]cn2)CC1 [Compound 34, 1-(4-Chloro-phenyl)-3-[1-(2-1H-imidazol-4-yl-acetyl)-piperidin-4-yl]-urea] |

Same assay, conditions: Conc 2000 nM

| % Inhibition [%] | Compound |
| --- | --- |
| 100 | COCC(=O)N1CCC(NC(=O)Nc2ccc(C(F)(F)F)cc2)CC1 [Compound 51, 1-(1-(2-methoxyacetyl)piperidin-4-yl)-3-(4-(trifluoromethyl)phenyl)urea] |

Same assay, conditions: Conc 5000 nM

| % Inhibition [%] | Compound |
| --- | --- |
| 96 | O=C(Nc1ccccc1)NC1CCN(C(=O)CCCN2CCOCC2)CC1 [ComparativeExample 1, 1-[1-(4-Morpholin-4-yl-butyryl)-piperidin-4-yl]-3-phenyl-urea, reference compound] |
| 80 | CC(=O)N1CCC(NC(=O)Nc2ccccc2)CC1 [ComparativeExample 5, 1-(1-Acetyl-piperidin-4-yl)-3-phenyl-urea, reference compound] |
